Laboratory results reported in patent US7629126B2, “PIM-3 kinase as a target for type 2 diabetes mellitus” (Sanofi-Aventis Deutschland GmbH, priority 2002, dated 2009).
Several values for one entry are separate records, joined by “and”; a condition that tells them apart may be missing. Equal entries are not always repeated.

Columns and labels:
Pim-3 [1] = assay: Gene expression of Pim-3 in epididymal adipose tissue of ZDF rats treated with anti-diabetic drugs (PPARγ agonists); assay type: in vivo, rat; conditions: ZDF rats 20 weeks old, 3 mg/kg/day for 14 weeks, single animals Rosi 1-5 vs ZDF 1-5
Description: (§1) Zucker Diabetic Fatty (ZDF/Gmi.TM.−fa/fa) male rats as well as their lean fa+/fa− counterparts, aged 5 weeks (control 1-5, ZDF 1-10)were obtained from Genetic Models Inc. (Indianapolis, Ind.). The rats were given free access to food and water. The ZDF animals were split into 2 groups: group 1(animals ZDF 1-5) was not treated with any agent, whereas the second group was treated for 14 weeks with the antidiabetic drug Rosiglitazone (3 mg/kg/day, animals 6-10, Rosi 1-5,). For the collection of epididymal fat pads and also blood samples, in each case 5 animals were sacrificed by cervical dislocation. To monitor the success of the antidiabetic treatment, HbA1c as marker of long-term blood glucose levels were measured by standard methods after finishing of the experiment.
Collection of epididymal adipose tissue, RNA isolation and Affymetrix experiments were performed as described in experiment 1. Data analysis included the comparison of expression data of samples derived from the lean control animals versus the untreated ZDF rats as well as the comparison of the expression data derived from Rosiglitazone treated ZDF animals versus non-treated ZDF animals. […] Fold changes of gene expression for Pim-3 were analyzed using the Affymetlrix qualifier AF086624_S_AT.

ZDF rats = assay: HbA1c as marker of long-term blood glucose in ZDF rats treated with Rosiglitazone; assay type: in vivo, rat; conditions: ZDF rats treated 14 weeks, 3 mg/kg/day, single animals R1-R5
Description: as §1

PIM-3 [2] = assay: Gene expression of PIM-3 in 3T3-L1 adipocytes treated with antidiabetic drugs (PPARγ agonists), Affymetrix array; assay type: cell-based, murine
Description: 3T3-L1 preadipocytes were grown at 37° C. in 10% CO2 in Dulbecco's modified Eagle's medium (DMEM) containing 1 g/l glucose and 10% fetal calf serum (FCS). For differentiation into mature adipocytes, confluent preadipocytes were cultured for four days in DMEM supplemented with 4.5 g/l glucose, 10% FCS, 50 μg/ml ascorbic acid, 1 μM biotin, 17 μM pantothenic acid (=basal medium), 500 μM 3-isobutylmethylxanthine, 0.25 μM dexamethasone and 1 μg/ml human recombinant insulin. During the four day treatment the medium was changed once.
Differentiated 3T3-L1 cells were maintained in basal medium for one additional day and subsequently kept in serum-free basal medium for four hours. Then, PPARγ agonists diluted in basal medium were added to the adipocytes as described below centrations and conditions see table 5):
RNA was isolated using the TRIzol reagent (Life Technologies, Karlsruhe, Germany) and treated with DNase I by applying the DNA-free kit (Ambion, Austin, Tex., US).
Further purification of the RNA was achieved using the RNeasy mini kit (Qiagen, Hilden, Germany) and quality/quantity control was done with the 2100Bioanalyzer (Agilent, Böblingen, Germany). 10 μg of total RNA was converted into biotinylated cRNA according to the GeneChip expression analysis technical manual (Affymetrix, Santa Clara, Calif., US). Briefly, first and second strand synthesis was performed by applying the SuperScript double stranded cDNA synthesis kit (Life Technologies, Kardsruhe, Germany) and biotin labeled cRNA was produced with the BioArray RNA transcript labeling kit (Enzo Diagnostics, Framingdale, N.Y., US). 10 μg of cRNA was fragmented by heat, added to the GeneChip eukaryotic hybridization control solution (Affymetrix) and hybridized to a GeneChip MG-U74Av2 array (Affymetrix) by rotating for 16 hours at 45° C. Washing, staining and scanning of the array was carried outwith standard procedures using the hardware provided by Affymetrix. Raw data was analyzed by applying the microarray suite version 4.0.1 software (Affymetrix, see above).
The entire experiment was repeated twice to provide three biological replicates.
Data analysis including the estimation of fold changes was performed as described above. Fold change values for PIM-3 were obtained by comparing the compound treated samples against the untreated controls for each time point.

[3] = 1 μM, 6 hours, Table 6a (replicate 1)
[4] = 1 μM, 6 hours, Table b (replicate 2)
[5] = 1 μM, 6 hours, Table c (replicate 3)
[6] = 1 μM, 24 hours, Table 6a (replicate 1)
[7] = 1 μM, 24 hours, Table b (replicate 2)
[8] = 1 μM, 24 hours, Table c (replicate 3)
[9] = 1 μM, 48 hours, Table 6a (replicate 1)
[10] = 1 μM, 48 hours, Table b (replicate 2)
[11] = 1 μM, 48 hours, Table c (replicate 3)
[12] = 5 μM, 6 hours, Table 6a (replicate 1)
[13] = 5 μM, 6 hours, Table b (replicate 2)
[14] = 5 μM, 6 hours, Table c (replicate 3)
[15] = 5 μM, 24 hours, Table 6a (replicate 1)
[16] = 5 μM, 24 hours, Table b (replicate 2)
[17] = 5 μM, 24 hours, Table c (replicate 3)
[18] = 5 μM, 48 hours, Table 6a (replicate 1)
[19] = 5 μM, 48 hours, Table b (replicate 2)
[20] = 5 μM, 48 hours, Table c (replicate 3)

Row | SMILES | Fold change (Pim-3 gene expression, treated ZDF rats vs untreated ZDF rats) (Pim-3 [1]) | HbA1c (%) (ZDF rats) | Fold change (PIM-3 gene expression vs DMSO control) (PIM-3 [2]; [3]) | Fold change (PIM-3 gene expression vs DMSO control) (PIM-3 [2]; [4]) | Fold change (PIM-3 gene expression vs DMSO control) (PIM-3 [2]; [5]) | Fold change (PIM-3 gene expression vs DMSO control) (PIM-3 [2]; [6]) | Fold change (PIM-3 gene expression vs DMSO control) (PIM-3 [2]; [7]) | Fold change (PIM-3 gene expression vs DMSO control) (PIM-3 [2]; [8]) | Fold change (PIM-3 gene expression vs DMSO control) (PIM-3 [2]; [9]) | Fold change (PIM-3 gene expression vs DMSO control) (PIM-3 [2]; [10]) | Fold change (PIM-3 gene expression vs DMSO control) (PIM-3 [2]; [11]) | Fold change (PIM-3 gene expression vs DMSO control) (PIM-3 [2]; [12]) | Fold change (PIM-3 gene expression vs DMSO control) (PIM-3 [2]; [13]) | Fold change (PIM-3 gene expression vs DMSO control) (PIM-3 [2]; [14]) | Fold change (PIM-3 gene expression vs DMSO control) (PIM-3 [2]; [15]) | Fold change (PIM-3 gene expression vs DMSO control) (PIM-3 [2]; [16]) | Fold change (PIM-3 gene expression vs DMSO control) (PIM-3 [2]; [17]) | Fold change (PIM-3 gene expression vs DMSO control) (PIM-3 [2]; [18]) | Fold change (PIM-3 gene expression vs DMSO control) (PIM-3 [2]; [19]) | Fold change (PIM-3 gene expression vs DMSO control) (PIM-3 [2]; [20])
1 | CN(CCOc1ccc(CC2SC(=O)NC2=O)cc1)c1ccccn1 (centres unmarked) [Rosi, rosiglitazone] | 1.6 (2×) and 1.3 and 1.5 and 1.4 | 4.30% and 4.27% and 4.14% (2×) and 4.13% | 2.1 | 1.5 | 2.0 | 2.9 | 2.2 | 1.9 | 2.6 | 2.0 | 2.1 | 2.2 | 1.3 | 2.2 | 2.9 | 1.9 | 1.3 | 2.6 | 1.9 | 2.0
2 | Cc1c(C)c2c(c(C)c1O)CCC(C)(COc1ccc(CC3SC(=O)NC3=O)cc1)O2 (centres unmarked) [Tro, troglitazone] | – | – | 1.7 | 1.7 | 1.8 | 1.8 | 1.6 | 1.6 | 1.8 | 1.6 | 1.6 | 2.1 | 1.7 | 2.3 | 2.7 | 1.9 | 2.0 | 2.4 | 1.9 | 2.3
